tested on: HCV genotype 1b strain Con1 replicon (ET replicon line, Huh7 cells); assay: ET replicon luciferase assay (HCV activity); type: cell-based; conditions: Hepatitis C virus, Huh-7, Huh7 cells with HCV genotype 1b Con1 luciferase replicon, 72 hours incubation
Protocol: Compounds of the current invention are believed useful in the treatment and/or prophylaxis of conditions and diseases associated with HcV infection. Activity mediated through HCV was determined using an ET replicon line.
The Materials used include a Medium comprised of DMEM (1× liquid, high glucose); Invitrogen cat# 11965-092; 100× Penicillin/Streptomycin solution (10,000 Units/mL); Invitrogen cat# 15140-122; 100× Non-essential amino acid solution (10 mM); Invitrogen cat# 11140-050; Fetal bovine serum; JRH Biosciences cat# 12107-500M; Geneticin (50 mg/mL); Invitrogen cat# 10131-035
The Luciferase assay reagents include Steady-Glo Luciferase assay system, cat# E2550 (Promega)
The ET replicon line (see Lohmann et al. (1999), Replication of subgenomic hepatitis C virus RNAs in a hepatoma cell line. Science 285: 110-113; Krieger et al. (2001), Enhancement of hepatitis C virus RNA replication by cell culture-adaptive mutations. J. Virol. 75: 46144624; and Vrolijk et al. (2003), A replicon-based bioassay for the measurement of interferons in patients with chronic hepatitis C. J. Virol. Meth. 110: 201-209, each herein incorporated by reference with regard to the ET replicon line), includes Huh7 cells stably transfected with HCV genotype 1b strain Con1 replicon. This replicon expresses the firefly luciferase, has the coding region for ubiquitin inserted upstream of the neomycin gene, and carries three cell culture-adaptive mutations that enhance RNA replication cooperatively (E1202G, T1280I, and S2197P). The ET cell line was obtained under licence from: R^eBLikon GmbH, Nach dem alten Schloss 22, 55239 Gau-Odemheim, Germany.
Cells are maintained at 37° C., 5% CO2, in DMEM with 10% FCS, 1× penicillin/streptomycin, 1× non-essential amino acids, 0.5 mg/mL Geneticin. For passage, cells are washed once with PBS, and incubated at 37° C. with sufficient trypsin (0.05%)/versene to cover the monolayer. Once detached from the flask, cells are mixed with several mLs of DMEM+10% FBS to inactivate the trypsin, then diluted appropriately (usually 1 in 5 or 1 in 10) with sufficient medium to pass to a new flask. For a T225 flask, 40-50 mLs total volume of cells+medium is typically used. To prevent the density dependent drop in replicon RNA, the ET cell line is maintained at sub-confluent (60-80%) levels.
Compounds are diluted in DMSO across the first 10 wells of a Costar V-bottom 96-well plate using a Biomek 2000 Workstation (Beckman-Coulter), with 0.5 log10 dilution intervals. DMSO only is added to the last two columns of the plate. The top concentration of drug in this master plate is typically 2.5 mM. A 1/5 dilution of the compounds is made by adding DMEM+10% FBS with a multichannel pipettor, giving a top concentration of 500 μM. 5 μL of diluted compounds is transferred into black Costar flat bottom 96-well daughter plates using a RapidPlate workstation (Zymark).
Cells are grown to approximately 80% confluency and trypsinised as described above. Cells are counted in a Levy Hemocytometer and diluted to 20,000 cells/ml in DMEM containing 10% FBS, 1× penicillin/streptomycin, 1×NEAAs. (Note: Geneticin is omitted for the assay).
245 μL cell suspension is added to the first 11 columns of the daughter plates prepared as above using a Multidrop dispenser (Titertek). Thus, 5,000 cells are added per well, and the final top concentration of each compound is 10 μM. The twelfth column of each plate is used to generate background readings for the assay. Plates are incubated at 37° C., 5% CO2 for 72 hours.
Steady-Glo reagent is prepared according to the manufacturer's instructions, by mixing the Steady-Glo Buffer and Steady-Glo substrate Buffer at room temperature. Medium is removed from the 96-well plates containing ET cells treated with compound using a multi-channel aspirator. 100 μl of Steady-Glo reagent is added to each well using a multichannel pipettor or Multidrop dispensor. […]

| Compound | IC50 |
| --- | --- |
| O=C(N[C@@H]1CCCc2c1[nH]c1ccc(Cl)cc21)c1ccccn1 [Example 45B, N-[(1R)-6-chloro-2,3,4,9-tetrahydro-1H-carbazol-1-yl]pyridine-2-carboxamide] | 6 nM |
| O=C(NC1CCCc2c1[nH]c1ccc(Br)cc21)c1ccccc1 (stereo not drawn) [Example 14A, N-(6-Bromo-2,3,4,9-tetrahydro-1H-carbazol-1-yl)benzamide] | 17 nM |
| O=C(N[C@@H]1CCCc2c1[nH]c1ccc(Cl)cc21)c1ccccc1 [Example 36B, N-[(1R)-6-chloro-2,3,4,9-tetrahydro-1H-carbazol-1-yl]benzamide] | < 30 nM |
| O=C(NC1CCCc2c1[nH]c1ccc(Br)cc21)c1ccccc1F (stereo not drawn) [Example 29, N-(6-Bromo-2,3,4,9-tetrahydro-1H-carbazol-1-yl)-2-fluorobenzamide] | 6 nM |
| O=C(NC1CCCc2c1[nH]c1ccc(Br)cc21)c1ccccn1 (stereo not drawn) [Example 38, N-(6-Bromo-2,3,4,9-tetrahydro-1H-carbazol-1-yl)pyridine-2-carboxamide] | 7 nM |
| O=C(N[C@@H]1CCCc2c1[nH]c1ccc(Cl)cc21)c1ccccc1F [Example 46B, N-[(1R)-6-chloro-2,3,4,9-tetrahydro-1H-carbazol-1-yl]-2-fluorobenzamide] | 16 nM |
